Results on five compounds are retold here after patent US20150210624A1, “DEUTERATED 4-HYDROXYBUTYRIC ACID ANALOGS” (Concert Pharmaceuticals, Inc., priority 2012, published 2015).

Counter-ions that a name gives are not always drawn.

Series [1] can be described thus: In vivo pharmacokinetic study in rats, IV and PO dosing (Example 6). Particulars: rat; for AUC(0-inf) / clearance / half-life / Vd / Cmax / Tmax / concentration at 4 hr / bioavailability / concentration at 2 hr: plasma; for Vd: read-out: Vz; for concentration at 4 hr: Cmin at 4 hr; for bioavailability: 200 mg/kg, PO vs IV AUC0-∞. The method, then: The pharmacokinetics of exemplary compounds was determined by comparison with 4-hydroxybutyric acid by dosing the compounds in rats according to the following study design and sampling procedure.
The results of the in vivo studies are disclosed in the following table (Table 2): […]

Series [2] in a line: In vivo pharmacokinetic study in rats, oral dosing (Example 7). The settings on record: rat, 200 mg/kg PO; for AUC(0-inf) / Cmax / Tmax / half-life: in vivo, mean; for AUC0-∞ value relative to 4-hydroxybutyric acid, sodium salt: sodium salts. The method, then: In a separate study, the pharmacokinetics of exemplary compounds IV-a, IV-b and IV-d was determined by comparison with 4-hydroxybutyric acid by dosing the compounds in rats orally. The study design was the same as for Example 6, except that sampling time points were as follows: predose, 5 min, 15 min, 30 min, 1 hour, 2 hours, 3 hours, 4 hours, and 5 hours (the 5 hour levels were not included in the for PK calculations). The results of the in vivo studies are disclosed in the following table (Table 3): […]

The conditions of series [3]: in humans; cited from earlier work.
Setting [4] is: 200 mg/kg IV, mean, calculated up to 2 hr.
[5] abbreviates: 200 mg/kg PO, mean, calculated up to 4 hr.
Setting [6] is: 200 mg/kg IV, mean, Cmin at 2 hr.

One may read the AUC(0-inf) as total exposure, with the tail of the curve extrapolated. Low values mean low exposure, high ones high exposure. Usually half-life stands for the time in which the quantity being followed falls by half. For orientation: Cmax means the maximum level reached in the sampled fluid or tissue. Usually Tmax stands for the time from dosing to the highest level. In general, bioavailability refers to dose-corrected exposure relative to a reference, in per cent. Read a high bioavailability as much systemic uptake.

In the case of `O=C(O)CCCO` [4-hydroxybutyric acid, sodium salt, sodium salt of 4-hydroxybutyric acid, reference compound], in series [1] (200 mg/kg IV, mean), the AUC(0-inf) worked out at 427 µg·h/mL, the clearance was 8 mL/min/kg and the Vd amounted to 0.2 L/kg. Also, the half-life in series [1] (setting [4]) was 15.6 min. Besides, in series [1] (200 mg/kg PO, mean), the total exposure AUC(0-inf) is 170 µg·h/mL, the peak level (Cmax) was 150 µg/mL, the Tmax was 30 min and the concentration at 4 hr turned out to be 2 µg/mL. Also, the half-life in series [1] (setting [5]) is 36.6 min. The compound further gave a bioavailability in series [1] of 40%. Further, the Cmin in series [1] (setting [6]) is recorded as 8′ ug/mL. For the same compound, in series [2], the AUC(0-inf) turned out to be 165 µg·h/mL, the highest level (Cmax) was 94 µg/mL, the Tmax stood at 47.4 min and the half-life is 60.6 min. Further, the half life in series [3] is 30 to 60 min.

`[2H]C([2H])(O)CCC(=O)O` [IV-a, sodium salt]: in series [2], the AUC(0-inf) came out at 335 µg·h/mL, the concentration peaked (Cmax) at 168 µg/mL, the Tmax stood at 70.2 min and the half-life was 28.8 min. In series [2], the “AUC0-∞ fold versus 4-hydroxybutyric acid, sodium salt” value was “(2.0X)”; the “Cmax fold versus 4-hydroxybutyric acid, sodium salt” value was “(1.8X)”; the “AUC0-∞ value relative to 4-hydroxybutyric acid, sodium salt” value was “considerably increased”.

In the case of `[2H]C([2H])(O)CC([2H])([2H])C(=O)[O-].[Na+]` [IV-b, sodium salt, Sodium 2,2,4,4-d4-4-hydroxybutanoate], in series [1] (200 mg/kg IV, mean), the AUC(0-inf) amounted to 651 µg·h/mL, the clearance was 5 mL/min/kg and the Vd was determined as 0.3 L/kg. The concentration at 2 hr in series [1] (setting [6]) came out at 76 µg/mL. Besides, the half-life in series [1] (setting [4]) is 37.8 min. In addition, in series [1] (200 mg/kg PO, mean), the AUC(0-inf) came to 260 µg·h/mL, the Cmax came out at 151 µg/mL, the Tmax was determined as 37.8 min and the concentration at 4 hr came to 5 µg/mL. Also, the half-life in series [1] (setting [5]) was 56.4 min. The bioavailability in series [1] was 40%. The “AUC0-∞ fold versus 4-hydroxybutyric acid, sodium salt” value in series [1] (200 mg/kg PO) is reported as “(+1.5X)”. In addition, in series [1] (from AUC0-∞ and t1/2 following IV administration), the “pharmacokinetic stability relative to 4-hydroxybutyric acid, sodium salt” value is reported as “considerably increased”. Moreover, in series [2], the AUC(0-inf) came out at 407 µg·h/mL, the highest level (Cmax) was 201 µg/mL, the time of peak concentration (Tmax) came out at 90 min and the half-life is 27.6 min. In series [2], the “AUC0-∞ fold versus 4-hydroxybutyric acid, sodium salt” value is reported as “(2.5X)”; the “Cmax fold versus 4-hydroxybutyric acid, sodium salt” value is on record as “(2.1X)”; the “AUC0-∞ value relative to 4-hydroxybutyric acid, sodium salt” value is listed as “considerably increased”.

On to `[2H]C([2H])(O)C([2H])([2H])C([2H])([2H])C(=O)O` [IV-d, sodium salt], for which, in series [2], the AUC(0-inf) is 404 µg·h/mL, the peak level (Cmax) was 188 µg/mL, the Tmax was determined as 100 min and the half-life is 27.6 min. For the same compound, in series [2], the “AUC0-∞ fold versus 4-hydroxybutyric acid, sodium salt” value was “(2.4X)”; the “Cmax fold versus 4-hydroxybutyric acid, sodium salt” value is recorded as “(2.0X)”; the “AUC0-∞ value relative to 4-hydroxybutyric acid, sodium salt” value is “considerably increased”.

As for `[2H]C([2H])(CCO)C(=O)[O-].[Na+]` [sodium 2,2-dideutero-4-hydroxybutanoate], in series [1] (200 mg/kg IV, mean), the AUC(0-inf) stood at 476 µg·h/mL, the clearance stood at 7 mL/min/kg and the Vd stood at 0.2 L/kg. The concentration at 2 hr in series [1] (setting [6]) is 19 µg/mL. In series [1] (setting [4]), the half-life is 19.8 min. Further, in series [1] (200 mg/kg PO, mean), the AUC(0-inf) was determined as 193 µg·h/mL, the Cmax is 153 µg/mL, the Tmax amounted to 37.8 min and the concentration at 4 hr is 1 µg/mL. For the same compound, the half-life in series [1] (setting [5]) was 35.4 min. The bioavailability in series [1] came to 41%. Also, the “AUC0-∞ fold versus 4-hydroxybutyric acid, sodium salt” value in series [1] (200 mg/kg PO) was “(+1.1X)”.
